Test results: PMC9298260, “An Immunomodulatory Peptide Dendrimer Inspired from Glatiramer Acetate” (Angewandte Chemie (International Ed. in English), 2021)

Columns and labels:
[1] = system: IL-1Ra release from human primary monocytes; test: IL-1Ra release from human primary monocytes, immunoassay (ELISA) of supernatants; format: cell-based; design: key: +: Ability to induce IL‐1Ra on primary monocytes after 48 h of incubation in the presence of 25–50 μg mL^−1 compound; Ability to induce IL‐1Ra on primary monocytes after 48 h of incubation in the presence of 25–50 μg mL^−1 compound; details: for Act. (ability to induce IL-1Ra): Table 1, 48 h, 25–50 μg mL^−1 compound; for IL-1Ra: 48 h
Experimental: (§1) As an activity screen we focused on interleukin‐1 receptor antagonist (IL‐1Ra), a cytokine released by circulating antigen presenting cells (APC) in response to GA.[15, 35] […] To test our dendrimers, we quantified by immunoassay the release of IL‐1Ra from human primary monocytes of healthy donors, an easily accessible type of APC, stimulated or not by addition of lipopolysaccharide (LPS), which in our hands provided a reliable read‐out.[15] We tested at defined weight/volume (25 and 50 μg mL^−1 compound as typically reported for GA)[15, 35] to account for a possible activity increase with MW as often observed with dendrimers when using molarity. In the initial screen the levels of secreted IL‐1Ra remained below 1 ng mL^−1 for all the smaller test compounds as well as with the linear peptide analogs of GA.
(§2) Figure 2 Cytokine level of IL‐1Ra in supernatants of primary human monocytes of healthy donors treated with peptide dendrimers, evaluated by ELISA (bars, left vertical axis) and mRNA levels (▴, right vertical axis). […] For mRNA levels evaluation, 2×10^6 cells 3 mL^−1 in 6 well plates were incubated with 50 μg mL^−1 dendrimer or GA for 18 h. […]
(§3) Enzyme-linked immunosorbent assay (ELISA)
(§4) Monocytes (5×10^4 cells/200 μL well; 96-well plates) were preincubated for 1 h with or without compounds in RPMI-1640 medium supplemented with 10% heat-inactivated FBS, 50 μg/mL streptomycin, 50 U/mL penicillin, 2 mM L-glutamine, and 5 μg/mL polymyxin B sulfate and then cultured for 48 h in the presence or absence of LPS (100 ng/mL) (2). The production of IL-1Ra was measured in culture supernatants by commercially available enzyme immunoassay according to manufacture protocol.
(§5) Figure S2. Cytokine level of IL-1Ra in supernatants of monocytes for active dendrimers and analogues evaluated by ELISA assay on primary human monocytes of healthy donors. 5×10^4 cells/200 µL in 96 well plates, were incubated with dendrimers or GA as a control for 48 h in presence or absence of LPS (100 ng/mL), in a range of concentrations (50-25 µg/mL) (mean ± SD, n = 2 different experiments). The results are present as the difference between each sample and the non-treated sample to take into account the difference between base line for each donor.
(§6) Figure S3. Cytokine level of IL-1Ra in supernatants of monocytes for active dendrimers and […]
(§7) presence or absence of LPS (100 ng/mL), in a range of concentrations (100-12.5 µg/mL) (mean ± SD, n = 3 different experiments). […]

[2] = system: IL-1Ra release from human primary monocytes; test: as above; format: cell-based; design: key: +: Ability to induce IL-1Ra on primary monocytes after 48 h of incubation; Ability to induce IL-1Ra on primary monocytes after 48 h of incubation; details: for Act. (ability to induce IL-1Ra): primary monocytes, 48 h; for IL-1Ra: ability to induce IL-1Ra on primary monocytes after 48 h of incubation, class + / -
Experimental: as §1, §2, §3, §4, §5, §6, §7

[3] = system: IL-1Ra release from human primary monocytes; test: as above; format: cell-based; details: primary human monocytes of healthy donors, 25 and 50 μg mL^−1, 48 h
Experimental: as §1, §2, §3, §4, §5, §6, §7

[4] = system: lymphocytes; test: IL-1Ra in supernatants of lymphocytes (rest of leukocytes after Percoll), ELISA; format: cell-based, human; details: rest of leukocytes after Percoll gradient, 50-25 µg/mL, 48 h, n = 2
Experimental: Similar donor dependent responses of cytokine release to GA have been reported for IL‐27.[38]
Figure S3. Cytokine level of IL-1Ra in supernatants of monocytes for active dendrimers and analogues evaluated by ELISA assay on primary human monocytes of healthy donors. 5×10^4 cells/200 µL in 96 well plates, were incubated with dendrimers or GA as a control for 48 h in presence or absence of LPS (100 ng/mL), in a range of concentrations (100-12.5 µg/mL) (mean ± SD, n = 3 different experiments).
Figure S4. Cytokine level of IL-1Ra in supernatants of monocytes enriched fraction (a) and the rest of leukocytes (b) for active dendrimers and analogues evaluated by ELISA assay.
Monocytes fraction was separated from whole PBMC by Percoll density gradient centrifugation. 5×10^4 cells/200 µL in 96 well plates were incubated with dendrimers or GA (50-25 µg/mL) as a control for 48 h (mean ± SD, n = 2 different experiments). […]

[5] = Circular dichroism spectroscopy; format: physicochemical; details: 100 μg/mL, 8 mM phosphate buffer pH 7.2/7.4
Experimental: In terms of stereochemistry, activity was lost with D‐enantiomers D‐1 and D‐4, similar to the inactivity reported for D‐enantiomeric GA.[2]
Circular dichroism (CD) experiments were measured on a Jasco J-715 Spectropolarimeter. All the experiments were performed using Hellma Suprasil 110-QS 0.1 cm cuvettes. For each peptide, the measurements were performed in phosphate buffer (PB, pH=7.2, 8 mM) and in the presence of 5 mM dodecylphosphocholine. The concentration of the peptides was 100.0 μg/mL and each sample was measured using one accumulation. The scan rate was 10 nm/min, pitch 0.5 nm, response 16 sec and bandwidth 1.0 nm. The nitrogen flow was kept >8.5 L/min. After each measurement, the cuvettes were washed successively with 1 M HCl, milli-Q H2O and PB buffer. The baseline was recorded under the same conditions and subtracted manually.
Figure S12. Circular dichroism spectra of GA, 1 and 4 (100 μg/mL) in 8 mM phosphate buffer at pH 7.4 (a) or in presence of 5 mM dodecylphosphocholine. Percentage of α-helix and β- sheet was processed by Dichroweb using the CONTIN analysis program and reference set 3.
(1 picture or pasted object on this page, not shown here)

[6] = cited from earlier work

| Substance | Act. (ability to induce IL-1Ra) [1] | Act. (ability to induce IL-1Ra) ([2]; Table S1 initial library) | IL-1Ra [2] | IL-1Ra release activity (in words) [3] | induction of IL-1Ra in lymphocytes [4] | conformation by CD spectra [5] | crossing of the BBB [6] | IL-1Ra ([1]; supplement s001.csv) | IL-1Ra ([1]; supplement s003.zip SMILES csv) | Act. (ability to induce IL-1Ra) ([2]; Table S2 analogs of 1 and 4) |
| --- | --- | --- | --- | --- | --- | --- | --- | --- | --- | --- |
| (AcKA)8(KAK)4(KEKA)2KAKEAYCA-NH2 [Ac1] | − | - | - | abolished |  |  |  |  |  |  |
| Glatiramer acetate [GA, reference compound] | + |  |  |  | did not occur | α‐helical | does not cross the BBB |  |  |  |
| (AcKA)8(KKKAK)4(KEKA)2KAKEAYCA-NH2 [Ac36] | + |  | + | preserved |  |  |  | + | + | + |
| (KA)8(KAK)4(KEKA)2KAKEAYCA-NH2)2 (disulfide) [1-1, disulfide bridged dimer of 1] | + |  | + | active |  |  |  | + | + | + |
